Structures can show the parent of a compound that is named as a salt. Where two headings read alike, the source gives them in different places.
Target: T1, hNaV1.7 (Homo sapiens, UniProt Q15858)
T1 construct: expressed in transfected cells; host or cells: HEK293
Test: QPatch NaV1.7 assay (whole-cell patch clamp, QPatch16x)
Format: cell-based
Conditions: HEK293-hNaV1.7 cells
Summary of the method: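 Automated whole-cell recordings in hNaV1.7-expressing HEK293 cells, holding at either −90 mV (mostly closed channels) or the half-inactivation voltage. Compounds applied cumulatively at four concentrations for 120 s each; peak current on 20 ms depolarisation to 0 mV fitted by Hill equation to yield pIC50.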

[1] = holding voltage V1/2 SSI (half of channels inactivated), read-out: QP Nav1.7 SSI vhalf pIC50 (converted)
[2] = holding voltage −90 mV (most channels closed), read-out: QP Nav1.7 −90 mV pIC50 (converted)

T1 sequence (Q15858 whole entry): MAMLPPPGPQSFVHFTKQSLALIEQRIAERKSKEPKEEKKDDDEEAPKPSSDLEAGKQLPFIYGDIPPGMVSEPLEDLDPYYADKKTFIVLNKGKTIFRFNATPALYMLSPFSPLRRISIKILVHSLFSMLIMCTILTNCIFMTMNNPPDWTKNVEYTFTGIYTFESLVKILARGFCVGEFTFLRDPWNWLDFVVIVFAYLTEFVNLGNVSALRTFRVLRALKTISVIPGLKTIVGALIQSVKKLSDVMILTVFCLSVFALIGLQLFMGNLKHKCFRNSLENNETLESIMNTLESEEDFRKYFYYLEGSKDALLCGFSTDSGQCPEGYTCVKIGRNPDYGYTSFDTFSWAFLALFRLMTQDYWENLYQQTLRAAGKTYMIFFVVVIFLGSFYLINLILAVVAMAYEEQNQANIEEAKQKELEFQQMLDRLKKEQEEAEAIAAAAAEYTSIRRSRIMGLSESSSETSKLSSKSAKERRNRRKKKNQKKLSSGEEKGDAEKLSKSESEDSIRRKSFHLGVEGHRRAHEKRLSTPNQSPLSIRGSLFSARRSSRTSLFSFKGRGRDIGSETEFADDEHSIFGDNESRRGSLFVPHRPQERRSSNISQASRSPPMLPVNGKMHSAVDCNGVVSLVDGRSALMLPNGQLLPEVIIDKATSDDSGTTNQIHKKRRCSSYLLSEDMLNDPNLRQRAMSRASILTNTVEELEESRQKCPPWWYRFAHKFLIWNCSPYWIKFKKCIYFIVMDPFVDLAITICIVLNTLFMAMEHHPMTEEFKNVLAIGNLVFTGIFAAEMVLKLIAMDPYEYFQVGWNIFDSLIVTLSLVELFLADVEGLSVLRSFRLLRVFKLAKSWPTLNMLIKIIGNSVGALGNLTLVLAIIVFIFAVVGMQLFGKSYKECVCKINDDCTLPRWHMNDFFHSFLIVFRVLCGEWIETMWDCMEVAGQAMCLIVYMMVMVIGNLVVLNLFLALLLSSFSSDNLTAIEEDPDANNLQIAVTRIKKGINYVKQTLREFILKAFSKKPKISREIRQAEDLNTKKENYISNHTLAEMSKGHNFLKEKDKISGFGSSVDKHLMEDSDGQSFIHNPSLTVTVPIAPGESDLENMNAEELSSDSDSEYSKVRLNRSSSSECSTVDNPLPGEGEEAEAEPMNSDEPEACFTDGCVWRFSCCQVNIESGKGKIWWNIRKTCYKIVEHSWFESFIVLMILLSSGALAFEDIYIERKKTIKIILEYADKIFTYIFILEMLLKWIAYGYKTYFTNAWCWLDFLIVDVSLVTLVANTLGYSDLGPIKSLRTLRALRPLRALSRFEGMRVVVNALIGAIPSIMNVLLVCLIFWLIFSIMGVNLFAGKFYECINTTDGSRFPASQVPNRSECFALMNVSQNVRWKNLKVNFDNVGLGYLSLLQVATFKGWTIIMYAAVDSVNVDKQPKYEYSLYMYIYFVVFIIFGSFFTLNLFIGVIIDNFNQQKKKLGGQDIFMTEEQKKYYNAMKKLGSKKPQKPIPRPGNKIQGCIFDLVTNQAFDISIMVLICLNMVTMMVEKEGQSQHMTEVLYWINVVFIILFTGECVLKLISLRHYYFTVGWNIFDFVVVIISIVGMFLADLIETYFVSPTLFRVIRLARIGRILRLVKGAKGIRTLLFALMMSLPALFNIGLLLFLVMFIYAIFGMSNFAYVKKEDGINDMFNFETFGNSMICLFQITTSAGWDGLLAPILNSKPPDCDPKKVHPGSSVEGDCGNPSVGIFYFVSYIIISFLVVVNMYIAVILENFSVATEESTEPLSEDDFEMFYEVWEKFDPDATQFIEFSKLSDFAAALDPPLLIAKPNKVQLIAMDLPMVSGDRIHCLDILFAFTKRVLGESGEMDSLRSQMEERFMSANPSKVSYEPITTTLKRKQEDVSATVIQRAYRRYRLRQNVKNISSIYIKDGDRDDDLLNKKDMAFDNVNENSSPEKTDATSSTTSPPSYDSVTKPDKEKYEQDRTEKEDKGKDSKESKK

Row | IC50 [1] | IC50 [2] | SMILES
1 | 7.94 µM | 126 µM | CCOc1cc(-c2cc(C)nc([C@H]3CC[C@]4(CCN(C)C4=O)N3)c2)ccc1F [Example 124, (2R,5R)-2-[4-(3-Ethoxy-4-fluoro-phenyl)-6-methyl-2-pyridyl]-7-methyl-1,7-diazaspio[4.4]nonan-6-one hydrochloride]
2 | 25.1 µM | 158 µM | CCOc1cc(-c2cc(C)nc([C@H]3CC[C@@]4(CCN(C)C4=O)N3)c2)ccc1F [Example 125, hydrochloride]
3 | 20 µM | 316 µM | CCOc1cc(-c2cc(C)nc([C@@H]3CC[C@@]4(CCN(C)C4=O)N3)c2)ccc1F [Example 126, (2S,5S)-2-[4-(3-Ethoxy-4-fluoro-phenyl)-6-methyl-2-pyridyl]-7-methyl-1,7-diazaspiro[4.4]nonan-6-one hydrochloride]
4 | 12.6 µM | 12.6 µM | Cc1cc(-c2cccc(OC(F)(F)F)c2)cc([C@H]2CC[C@@]3(CCN(C)C3=O)N2)n1 [Example 127, (2R,5S)-7-Methyl-2-[6-methyl-4-[3-(trifluoromethoxy)phenyl]-2-pyridyl]-1,7-diazaspiro[4.4]nonan-6-one hydrochloride]
5 | 5.01 µM | 20 µM | Cc1cc(-c2cccc(OC(F)(F)F)c2)cc([C@@H]2CC[C@]3(CCN(C)C3=O)N2)n1 [Example 128, (2S,5R)-7-Methyl-2-[6-methyl-4-[3-(trifluoromethoxy)phenyl]-2-pyridyl]-1,7-diazaspiro[4.4]nonan-6-one hydrochloride]
6 | 20 µM | 200 µM | COc1cc(C(F)(F)F)ccc1-c1cc([C@@H]2CC[C@]3(CCN(C)C3=O)N2)ncc1C [Example 129, (2S,5R)-2-[4-[2-Methoxy-4-(trifluoromethyl)phenyl]-5-methyl-2-pyridyl]-7-methyl-1,7-diazaspiro[4.4]nonan-6-one hydrochloride]
7 | 7.94 µM | 158 µM | COc1cc(C(F)(F)F)ccc1-c1cc([C@H]2CC[C@]3(CCN(C)C3=O)N2)ncc1C [Example 130, (2R,5R)-2-[4-[2-Methoxy-4-(trifluoromethyl)phenyl]-5-methyl-2-pyridyl]-7-methyl-1,7-diazaspiro[4.4]nonan-6-one hydrochloride]
8 | 2 µM | 100 µM | COc1cc(C(F)(F)F)ccc1-c1cc([C@H]2CC[C@@]3(CCN(C)C3=O)N2)ncc1C [Example 131, (2R,5S)-2-[4-[2-Methoxy-4-(trifluoromethyl)phenyl]-5-methyl-2-pyridyl]-7-methyl-1,7-diazaspiro[4.4]nonan-6-one hydrochloride]
9 | 39.8 µM | 251 µM | COc1cc(C(F)(F)F)ccc1-c1cc([C@@H]2CC[C@@]3(CCN(C)C3=O)N2)ncc1C [Example 132, (2S,5S)-2-[4-[2-Methoxy-4-(trifluoromethyl)phenyl]-5-methyl-2-pyridyl]-7-methyl-1,7-diazaspiro[4.4]nonan-6-one hydrochloride]
10 | 20 µM | 158 µM | CCOc1ccc(F)c(-c2cc([C@H]3CC[C@@]4(CCN(C)C4=O)N3)ncc2C)c1 [Example 137, (2R,5S)-2-[4-(5-Ethoxy-2-fluoro-phenyl)-5-methyl-2-pyridyl]-7-methyl-1,7-diazaspiro[4.4]nonan-6-one hydrochloride]
11 | 25.1 µM | 200 µM | CCOc1ccc(F)c(-c2cc([C@@H]3CC[C@@]4(CCN(C)C4=O)N3)ncc2C)c1 [Example 138, (2S,5S)-2-[4-(5-Ethoxy-2-fluoro-phenyl)-5-methyl-2-pyridyl]-7-methyl-1,7-diazaspiro[4.4]nonan-6-one hydrochloride]
12 | 39.8 µM | 251 µM | CCOc1ccc(F)c(-c2cc([C@@H]3CC[C@]4(CCN(C)C4=O)N3)ncc2C)c1 [Example 139, (2S,5R)-2-[4-(5-Ethoxy-2-fluoro-phenyl)-5-methyl-2-pyridyl]-7-methyl-1,7-diazaspiro[4.4]nonan-6-one hydrochloride]
13 | 31.6 µM | 100 µM | CCOc1ccc(F)c(-c2cc([C@H]3CC[C@]4(CCN(C)C4=O)N3)ncc2C)c1 [Example 140, (2R,5R)-2-[4-(5-Ethoxy-2-fluoro-phenyl)-5-methyl-2-pyridyl]-7-methyl-1,7-diazaspiro[4.4]nonan-6-one hydrochloride]
14 | 6.31 µM | 63.1 µM | CCOc1ccc(F)c(-c2cc([C@H]3CC[C@]4(CCN(C)C4=O)N3)nc(C)c2C)c1 [Example 141, (2R,5R)-2-[4-(5-Ethoxy-2-fluoro-phenyl)-5,6-dimethyl-2-pyridyl]-7-methyl-1,7-diazaspiro[4.4]nonan-6-one hydrochloride]
15 | 0.794 µM | 15.8 µM | CCOc1ccc(F)c(-c2cc([C@@H]3CC[C@@]4(CCN(C)C4=O)N3)nc(C)c2C)c1 [Example 142, (2S,5S)-2-[4-(5-Ethoxy-2-fluoro-phenyl)-5,6-dimethyl-2-pyridyl]-7-methyl-1,7-diazaspiro[4.4]nonan-6-one hydrochloride]
16 | 10 µM | 63.1 µM | CCOc1ccc(F)c(-c2cc([C@@H]3CC[C@]4(CCN(C)C4=O)N3)nc(C)c2C)c1 [Example 143, (2S,5R)-2-[4-(5-Ethoxy-2-fluoro-phenyl)-5,6-dimethyl-2-pyridyl]-7-methyl-1,7-diazaspiro[4.4]nonan-6-one hydrochloride]
17 | 3.98 µM | 31.6 µM | CCOc1ccc(F)c(-c2cc([C@H]3CC[C@@]4(CCN(C)C4=O)N3)nc(C)c2C)c1 [Example 144, (2R,5S)-2-[4-(5-Ethoxy-2-fluoro-phenyl)-5,6-dimethyl-2-pyridyl]-7-methyl-1,7-diazaspiro[4.4]nonan-6-one hydrochloride]
18 | 6.31 µM | 79.4 µM | CCOc1ccc(F)c(-c2ccnc([C@@H]3CC[C@]4(CCN(C)C4=O)N3)c2)c1 [Example 145, (2S,5R)-2-[4-(5-Ethoxy-2-fluoro-phenyl)-2-pyridyl]-7-methyl-1,7-diazaspiro[4.4]nonan-6-one hydrochloride]
19 | 2 µM | 31.6 µM | CCOc1ccc(F)c(-c2ccnc([C@H]3CC[C@]4(CCN(C)C4=O)N3)c2)c1 [Example 146, (2R,5R)-2-[4-(5-Ethoxy-2-fluoro-phenyl)-2-pyridyl]-7-methyl-1,7-diazaspiro[4.4]nonan-6-one hydrochloride]
20 | 3.16 µM | 50.1 µM | CCOc1ccc(F)c(-c2ccnc([C@@H]3CC[C@@]4(CCN(C)C4=O)N3)c2)c1 [Example 147, (2S,5S)-2-[4-(5-Ethoxy-2-fluoro-phenyl)-2-pyridyl]-7-methyl-1,7-diazaspiro[4.4]nonan-6-one hydrochloride]
21 | 31.6 µM | 398 µM | CCOc1cc(-c2ccnc([C@@H]3CC[C@@]4(CCN(C)C4=O)N3)c2)c(F)cc1F [Example 148, (2S,5S)-2-[4-(5-Ethoxy-2,4-difluoro-phenyl)-2-pyridyl]-7-methyl-1,7-diazaspiro[4.4]nonan-6-one hydrochloride]
22 | 25.1 µM | 398 µM | CCOc1cc(-c2ccnc([C@H]3CC[C@@]4(CCN(C)C4=O)N3)c2)c(F)cc1F [Example 149, (2R,5S)-2-[4-(5-Ethoxy-2,4-difluoro-phenyl)-2-pyridyl]-7-methyl-1,7-diazaspiro[4.4]nonan-6-one hydrochloride]
23 | 12.6 µM | 126 µM | CCOc1cc(-c2ccnc([C@@H]3CC[C@@]4(CCN(C)C4=O)N3)c2)c(F)cc1C [Example 150, (2S,5S)-2-[4-(5-Ethoxy-2-fluoro-4-methyl-phenyl)-2-pyridyl]-7-methyl-1,7-diazaspiro[4.4]nonan-6-one hydrochloride]
24 | 15.8 µM | 100 µM | CCOc1cc(-c2ccnc([C@H]3CC[C@@]4(CCN(C)C4=O)N3)c2)c(F)cc1C [Example 151, (2R,5S)-2-[4-(5-Ethoxy-2-fluoro-4-methyl-phenyl)-2-pyridyl]-7-methyl-1,7-diazaspiro[4.4]nonan-6-one hydrochloride]
25 | 15.8 µM | 200 µM | COc1cnc([C@H]2CC[C@]3(CCN(C)C3=O)N2)cc1-c1ccc(C(F)(F)F)cc1 [Example 152, (2R,5R)-2-[5-Methoxy-4-[4-(trifluoromethyl)phenyl]-2-pyridyl]-7-methyl-1,7-diazaspiro[4.4]nonan-6-one hydrochloride]
26 | 12.6 µM | 158 µM | COc1cnc([C@@H]2CC[C@]3(CCN(C)C3=O)N2)cc1-c1ccc(C(F)(F)F)cc1 [Example 153, (2S,5R)-2-[5-Methoxy-4-[4-(trifluoromethyl)phenyl]-2-pyridyl]-7-methyl-1,7-diazaspiro[4.4]nonan-6-one hydrochloride]
27 | 12.6 µM | 100 µM | COc1cnc([C@@H]2CC[C@@]3(CCN(C)C3=O)N2)cc1-c1ccc(C(F)(F)F)cc1 [Example 154, (2S,5S)-2-[5-Methoxy-4-[4-(trifluoromethyl)phenyl]-2-pyridyl]-7-methyl-1,7-diazaspiro[4.4]nonan-6-one hydrochloride]
28 | 3.98 µM | 39.8 µM | COc1cnc([C@H]2CC[C@@]3(CCN(C)C3=O)N2)cc1-c1ccc(C(F)(F)F)cc1 [Example 155, (2R,5S)-2-[5-Methoxy-4-[4-(trifluoromethyl)phenyl]-2-pyridyl]-7-methyl-1,7-diazaspiro[4.4]nonan-6-one hydrochloride]
29 | 20 µM | 126 µM | CN1CC[C@@]2(CC[C@H](c3cc(-c4ccc(OC(F)F)cc4F)ccn3)N2)C1=O [Example 156, (2R,5S)-2-[4-(4-Difluoromethoxy-2-fluoro-phenyl)-pyridin-2-yl]-7-methyl-1,7-diaza-spiro[4.4]nonan-6-one hydrochloride]
30 | 25.1 µM | 79.4 µM | CN1CC[C@@]2(CC[C@H](c3cc(-c4cn(C)c5ccccc45)ccn3)N2)C1=O [Example 157, (2R,5S)-7-Methyl-2-[4-(1-methyl-1H-indol-3-yl)-pyridin-2-yl]-1,7-diaza-spiro[4.4]nonan-6-one hydrochloride]

Reference: patent US9376436B2, “2-(pyridin-2yl)-1, 7-diaza-spiro [4.4] nonane-6-one compound as voltage-gated sodium channels modulators” (CONVERGENCE PHARMACEUTICALS LIMITED, priority 2011, dated 2016)
